Assay results reported in patent publication US8338422B2, “Indolin-2-ones and aza-indolin-2-ones” (Janssen Pharmaceutica NV, priority 2007, dated 2012).
Values joined by “and” are separate entries in the source; they are usually repeats but may differ in a detail not shown here. Equal values may be shown once.

Columns and labels:
H1299 = test: Cellular proliferation assay (Alamar blue), H1299; assay type: cell-based; details: H1299 cells, 72 hours with compound, 10% FCS; for IC50: Homo sapiens, NCI-H1299, 72 h, read-out: pIC50 H1299 (converted)
Description: (§1) […] functional properties of these compounds was tested in cellular proliferation assays on a panel of different cell lines in the presence of 10% FCS serum (37° C. and 5% (v/v) CO2). In a first step these cells were seeded and incubated for 24 hours in the absence of compound. In the second step the cells were incubated for 72 hours with the compounds to be tested for 72 hours. The viable cell number was finally assessed in a standard Alamar blue cell viability assay.
(§2) The viable cell number was assessed by incubation for either 4 h (HCT-116, H1299, H460) 6 h (SKOV3, HT29, U87-MG, Colo205) or 24 h (A2780, PC3, MDA-MB-231, A549, MCF-7) with Alamar blue (Resazurin 9 μg/ml, K-Ferrocyanide 90 μM K-Ferricyanide 90 μM) and the converted fluorescent product was quantified on a fluorescent plate readed (544 nm/590 nm). Effect of the compounds is calculated as of on control cells.

HCT-116 = test: Cellular proliferation assay (Alamar blue), HCT-116; assay type: cell-based; details: HCT-116 cells, 72 hours with compound, 10% FCS; for IC50: Homo sapiens, HCT-116, 72 h, read-out: pIC50 HCT-116 (converted)
Description: as §1, §2

PC-3 = test: Cellular proliferation assay (Alamar blue), PC-3; assay type: cell-based; details: PC-3 cells, 72 hours with compound, 10% FCS; for IC50: Homo sapiens, PC-3, 72 h, read-out: pIC50 PC-3 (converted)
Description: as §1, §2

GSK3β (h) = GSK3β (h) (Homo sapiens, UniProt P49841); test: GSK-3β human kinase assay (SPA); assay type: biochemical; details: for IC50: read-out: GSK3B pIC50 (converted)
Description: (§3) The in vitro inhibition of a panel of kinases was assessed using either the scintillation proximity assay (SPA) as described by Cook, N. D. et al., Advances in Experimental Medicine and Biology (1991), 36; p. 525-528; or the Fluorescence Resonance Energy Transfer (FRET) technology as described by Rodems, S. M. et al., Assay Drug Develop. Technol. (2002), 1; p. 9-19.
(§4) In the SPA technology the activity of the kinase of interest is measured using an appropriate biotinylated substrate that is incubated with the aforementioned kinase protein in the presence of (^33P) radiolabeled ATP. (^33P) Phosporylation of the substrate is subsequently measured through binding of the phosphorylated substrate to streptavidine coated beads that are based on the scintillant poly(vinyl toluene) (PVT-Beads). The scintillation intensity is detected by imaging on Leadseeker.
(§5) All kinases are pre-diluted to a 10× working concentration prior to addition into the assay. The composition of the dilution buffer for each kinase is detailed below.
In a final reaction volume of 30 μl, GSK3β (h) (1 μg/ml) is incubated with 25 mM Tris pH 7.4, 10 mM MgCl2, 1 mM DTT, 1 μM peptide Biotin-KRREILSRRPSYR-OH, 1 μM ATP and 2 nM [γ-^33P-ATP] (6.0 μCi/ml). After incubation of 60 minutes at room temperature, the reaction is stopped by addition of […] of stop solution containing 8.7 mM EDTA, BSA 0.17%, 0.17% Triton X-100, 6.25 mg/ml SPA beads (GE-healthcare). The plate is centriguged and read for Scintillation imaging on Leadseeker.

AuroraB (h) = AuroraB (h) (Homo sapiens, UniProt Q96GD4); test: Aurora-B human kinase assay (SPA); assay type: biochemical; details: for IC50: read-out: AuroraB pIC50 (converted)
Description: as §3, §4, §5
In a final reaction volume of 30 μl, AuroraB (h) (0.5 μg/ml) is incubated with 60 mM Hepes pH 7.5, 3 mM MgCl2, 3 mM MnCl2, 3 μM Na3VO4, 0.05 mg/ml PEG, 2 mM DTT, 3 μM Biotin-[…]-OH, 0.5 μM ATP and 2.2 nM [γ-^33P-ATP] (6.8 μCi/ml). After incubation of 60 minutes at room temperature, the reaction is stopped by addition of 40 μL of stop solution containing 8.7 mM EDTA, BSA 0.17%, 0.17% Triton X-100, 5 mg/ml SPA beads (GE-healthcare). The plate is centriguged and read for Scintillation imaging on Leadseeker.

PLK4 (h) = PLK4 (h) (Homo sapiens, UniProt O00444); test: PLK-4 human kinase assay (SPA); assay type: biochemical; details: for IC50: read-out: PLK4 pIC50 (converted)
Description: as §3, §4, §5
In a final reaction volume of 30 μl PLK4 (h) (19 μg/ml) is incubated with 50 mM Hepes pH 8.0, 10 mM MgCl2, 50 mM NaCl, 1 mM NaF, 1 mM DTT, 10 μM of peptide Biotin-RPRGQRDSSYYWE-OH, 1 μM ATP and 2 nM [γ-^33P-ATP] (6.0 μCi/ml). After incubation of 60 minutes at room temperature, the reaction is stopped by addition of 40 μl, of stop solution containing 8.7 mM EDTA, BSA 0.17%, 0.17% Triton X-100, 1.7 mg/ml SPA beads (GE-healthcare). The plate is centriguged and read for Scintillation imaging on Leadseeker.

U87MG = test: Cellular proliferation assay (Alamar blue), U87MG; assay type: cell-based; details: U87MG cells, 72 hours with compound, 10% FCS; for IC50: Homo sapiens, U-87 MG, 72 h, read-out: pIC50 U87MG (converted)
Description: as §1, §2

A2780 = test: Cellular proliferation assay (Alamar blue), A2780; assay type: cell-based; details: A2780 cells, 72 hours with compound, 10% FCS; for IC50: Homo sapiens, A2780, 72 h, read-out: pIC50 A2780 (converted)
Description: as §1, §2

CDK1/CyclinB (h) = CDK1/CyclinB (h) (Homo sapiens, UniProt P06493); test: CDK1/CyclinB human kinase assay (FRET); assay type: biochemical; details: for IC50: read-out: CDK1 pIC50 (converted)
Description: as §3
In the FRET technology the activity of the kinase of interest is measured using an appropriate substrate that is labeled with two fluorophores (coumarin and fluorescein). Phosphorylation is determined using a developing reagent comprising a protease that recognizes and cleaves nonphosphorylated peptides. Cleavage will disturb the FRET between the fluorescein and coumarin on the peptide. Uncleaved, phosphorylated peptides maintain the FRET signal. A ratiometric readout of the donor emission over the acceptor emission quantitates the reaction process.
as §5
In a final reaction volume of 10 μl, CDK1/CyclinB (h) (0.2 μg/ml) is incubated with 50 mM Hepes pH 7.5, 10 mM MgCl2, 1 mM EGTA, 0.01% Brij-35, 2 μM Z'lyte Ser/Thr peptide 12 and 10 μM ATP (Invitrogen's FRET assay). After incubation of 60 minutes at room temperature, the reaction is stopped by addition of 5 μL development reagent containing protease mix. After 60 minutes room temperature the development reaction is stopped by adding 5 μl stop solution. The plate is then read in fluorescence plate reader with excitation: 390 nm and dual emission: 460 and 538 nm. Emission ratio is determined to the formula=Emission signal intensity at 460 nm/Emission signal intensity at 538 nm.

MDA/MB231 = test: Cellular proliferation assay (Alamar blue), MDA/MB231; assay type: cell-based; details: MDA/MB231 cells, 72 hours with compound, 10% FCS; for IC50: Homo sapiens, MDA-MB-231, 72 h, read-out: pIC50 MDA/MB231 (converted)
Description: as §1, §2

Chain of AuroraB (h) (Q96GD4 whole entry): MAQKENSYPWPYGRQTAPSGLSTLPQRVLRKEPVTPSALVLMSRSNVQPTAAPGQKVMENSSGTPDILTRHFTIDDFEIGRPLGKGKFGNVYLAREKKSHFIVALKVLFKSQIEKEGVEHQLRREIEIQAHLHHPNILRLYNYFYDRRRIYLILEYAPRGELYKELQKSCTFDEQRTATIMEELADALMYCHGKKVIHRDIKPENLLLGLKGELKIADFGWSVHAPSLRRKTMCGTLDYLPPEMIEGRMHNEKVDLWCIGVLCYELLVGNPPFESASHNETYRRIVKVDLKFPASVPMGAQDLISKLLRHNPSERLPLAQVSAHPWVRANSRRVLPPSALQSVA
Chain of CDK1/CyclinB (h) (P06493 whole entry): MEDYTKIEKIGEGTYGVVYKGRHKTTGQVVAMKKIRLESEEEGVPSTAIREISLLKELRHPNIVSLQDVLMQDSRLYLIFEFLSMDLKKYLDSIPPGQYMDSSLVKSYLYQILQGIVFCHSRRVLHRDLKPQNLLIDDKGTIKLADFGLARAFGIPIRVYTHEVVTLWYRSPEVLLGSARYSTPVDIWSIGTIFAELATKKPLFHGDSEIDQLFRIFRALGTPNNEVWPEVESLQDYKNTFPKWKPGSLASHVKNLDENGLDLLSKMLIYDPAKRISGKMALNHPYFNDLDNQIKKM
Chain of CDK1/CyclinB (h) (P14635 whole entry partner): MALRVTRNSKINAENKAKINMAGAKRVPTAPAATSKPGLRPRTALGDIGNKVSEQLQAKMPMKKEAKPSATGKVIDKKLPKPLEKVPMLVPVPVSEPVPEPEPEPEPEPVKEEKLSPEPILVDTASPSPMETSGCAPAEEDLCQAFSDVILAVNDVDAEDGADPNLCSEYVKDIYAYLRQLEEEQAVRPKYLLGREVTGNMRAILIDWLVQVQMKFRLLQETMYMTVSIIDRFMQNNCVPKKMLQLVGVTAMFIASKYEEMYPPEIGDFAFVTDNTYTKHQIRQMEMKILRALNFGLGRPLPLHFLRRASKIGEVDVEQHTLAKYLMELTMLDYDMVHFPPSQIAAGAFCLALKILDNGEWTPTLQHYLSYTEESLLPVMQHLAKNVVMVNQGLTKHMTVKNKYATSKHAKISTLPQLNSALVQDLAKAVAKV
Chain of GSK3β (h) (P49841 whole entry): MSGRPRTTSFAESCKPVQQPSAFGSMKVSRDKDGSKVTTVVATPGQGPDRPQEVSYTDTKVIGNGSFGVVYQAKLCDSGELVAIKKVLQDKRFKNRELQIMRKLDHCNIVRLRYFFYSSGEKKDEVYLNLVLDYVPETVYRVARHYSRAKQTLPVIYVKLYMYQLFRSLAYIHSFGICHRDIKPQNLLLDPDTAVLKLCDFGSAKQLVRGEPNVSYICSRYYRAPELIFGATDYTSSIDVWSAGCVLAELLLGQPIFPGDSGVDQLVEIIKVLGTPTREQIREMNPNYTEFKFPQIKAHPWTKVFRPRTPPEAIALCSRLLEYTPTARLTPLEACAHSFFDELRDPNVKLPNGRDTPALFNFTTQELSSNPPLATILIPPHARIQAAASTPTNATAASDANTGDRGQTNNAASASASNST
Chain of PLK4 (h) (O00444 whole entry): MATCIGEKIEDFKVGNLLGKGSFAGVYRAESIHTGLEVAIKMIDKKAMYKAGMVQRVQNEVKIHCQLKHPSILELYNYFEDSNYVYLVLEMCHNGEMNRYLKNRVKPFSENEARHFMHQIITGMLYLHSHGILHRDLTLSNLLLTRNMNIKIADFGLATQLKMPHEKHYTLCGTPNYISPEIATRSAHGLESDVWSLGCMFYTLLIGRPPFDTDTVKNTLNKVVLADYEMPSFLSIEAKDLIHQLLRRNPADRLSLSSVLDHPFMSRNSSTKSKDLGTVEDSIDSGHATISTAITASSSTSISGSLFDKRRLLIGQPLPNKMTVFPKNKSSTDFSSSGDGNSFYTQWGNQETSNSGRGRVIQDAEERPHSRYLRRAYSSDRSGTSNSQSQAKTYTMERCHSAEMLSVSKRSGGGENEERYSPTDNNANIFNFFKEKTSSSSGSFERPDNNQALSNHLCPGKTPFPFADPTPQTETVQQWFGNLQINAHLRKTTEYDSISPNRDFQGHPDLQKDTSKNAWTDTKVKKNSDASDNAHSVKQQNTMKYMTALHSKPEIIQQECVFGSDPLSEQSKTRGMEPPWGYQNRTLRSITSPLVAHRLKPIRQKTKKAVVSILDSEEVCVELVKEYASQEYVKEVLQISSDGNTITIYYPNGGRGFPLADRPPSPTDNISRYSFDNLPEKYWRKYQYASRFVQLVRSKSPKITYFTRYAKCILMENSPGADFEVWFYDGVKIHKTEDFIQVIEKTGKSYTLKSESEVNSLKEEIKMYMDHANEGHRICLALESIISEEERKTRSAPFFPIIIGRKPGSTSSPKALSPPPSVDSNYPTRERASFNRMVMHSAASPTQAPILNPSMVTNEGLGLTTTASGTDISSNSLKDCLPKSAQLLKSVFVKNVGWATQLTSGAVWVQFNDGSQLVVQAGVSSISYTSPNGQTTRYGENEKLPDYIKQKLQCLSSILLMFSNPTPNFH

Structure (SMILES) | IC50 (PLK4 (h)) | IC50 (A2780) [µM] | IC50 (GSK3β (h)) [nM] | IC50 (AuroraB (h)) | IC50 (CDK1/CyclinB (h)) [µM] | other results
CN1CCN(c2ccc3cc2OCCCC(=O)N(C)CCCNc2ncnc4c2C(=CN3)C(=O)N4)CC1 (mixture of isomers) [Compound 133] | – | – | – | – | – | pIC50 H1299 (H1299): 5.17; pIC50 HCT-116 (HCT-116): 6.16; pIC50 PC-3 (PC-3): 5.02; GSK3B pIC50 (GSK3β (h)): 6.95; AuroraB pIC50 (AuroraB (h)): 5.81; PLK4 pIC50 (PLK4 (h)): 7.21; pIC50 U87MG (U87MG): 5.65; pIC50 A2780 (A2780): 6.00; CDK1 pIC50 (CDK1/CyclinB (h)): 6.8
O=C1CCCOc2cccc(c2)NC=C2C(=O)Nc3ncnc(c32)NCCCN1 (mixture of isomers) [Compound 142] | – | – | – | – | – | pIC50 H1299 (H1299): 6.14; pIC50 PC-3 (PC-3): 5.75; GSK3B pIC50 (GSK3β (h)): 7.7; AuroraB pIC50 (AuroraB (h)): 6.93; PLK4 pIC50 (PLK4 (h)): 7.3; pIC50 U87MG (U87MG): 5.19; pIC50 A2780 (A2780): <5; CDK1 pIC50 (CDK1/CyclinB (h)): 6.83; pIC50 MDA/MB231 (MDA/MB231): <5
COc1ccc2cc1OCCCC(=O)NCCCNc1ncnc3c1C(=CN2)C(=O)N3 (mixture of isomers) [Compound 146] | – | – | – | – | – | pIC50 H1299 (H1299): 6.41; pIC50 HCT-116 (HCT-116): 6.15; pIC50 PC-3 (PC-3): 6.22; GSK3B pIC50 (GSK3β (h)): 7.56; AuroraB pIC50 (AuroraB (h)): 7.24; PLK4 pIC50 (PLK4 (h)): 7.34; pIC50 U87MG (U87MG): 5.80; pIC50 A2780 (A2780): 5.83; CDK1 pIC50 (CDK1/CyclinB (h)): 7.21
O=C1Nc2ncnc3c2/C1=C/Nc1ccc(Cl)c(c1)OCCCCCC(=O)N1CCN3CC1 [Compound 25] | > 10000 nM | > 10 | – | – | – | IC50 (PC-3): > 10 µM; IC50 (U87MG): > 10000 nM; IC50 (MDA/MB231): > 10 µM
CC(C)N1CCCCCCC(=O)N2CCN(CC2)c2ncnc3c2/C(=C/Nc2ccc(F)c(c2)C1)C(=O)N3 [Compound 29] | > 10000 nM | > 10 | – | – | – | IC50 (HCT-116): > 10 µM; IC50 (PC-3): > 10 µM; IC50 (U87MG): > 10000 nM; IC50 (MDA/MB231): > 10 µM
CN1CCCNc2ncnc3c2/C(=C/Nc2ccc(Cl)c(c2)OCCCCC1=O)C(=O)N3 [Compound 61] | 1780 nM | > 10 | 63.1 | 0.0513 µM | > 10 | IC50 (H1299): > 10 µM; IC50 (HCT-116): 8.71 µM; IC50 (PC-3): > 10 µM; IC50 (MDA/MB231): > 10 µM
CN1CCCNc2ncnc3c2/C(=C/Nc2cccc(c2)OCCCCCCC1=O)C(=O)N3 [Compound 69] | 3390 nM | > 10 | 1070 | 5.01 µM | > 10 | IC50 (H1299): > 10 µM; IC50 (HCT-116): > 10 µM; IC50 (U87MG): > 10000 nM
CN1CCCC(=O)N(C)CCNc2ncnc3c2/C(=C/Nc2ccc(N4CCOCC4)c(c2)C1)C(=O)N3 [Compound 94] | 5130 nM | – | 1050 | > 10 µM | > 10 | –
COc1cc2cc(c1OC)CN(C)CCCCC(=O)N(C)CCCNc1ncnc3c1/C(=C/N2)C(=O)N3 [Compound 95] | 2690 nM | – | 3160 | > 10 µM | 1.15 | –
CN1CCCCC(=O)N(C)CCCNc2ncnc3c2/C(=C/Nc2ccc(N4CCOCC4)c(c2)C1)C(=O)N3 [Compound 96] | 741 nM | – | 708 | > 10 µM | 3.39 | –
N#Cc1ccc2cc1OCCCC(=O)N1CCN(CC1)c1ncnc3c1/C(=C/N2)C(=O)N3 [Compound 98] | > 10000 nM | – | 776 | > 10 µM | > 10 | –
COc1nc2c3c(n1)NC(=O)/C3=C\Nc1ccc(Cl)c(c1)OCCCCC(=O)N(C)CCCN2 [Compound 111] | – | 3.24 | 3090 | > 10 µM | – | IC50 (H1299): > 10 µM; IC50 (HCT-116): 3.63 µM; IC50 (PC-3): 6.46 µM; IC50 (U87MG): 2690 nM
CN1CCNc2ncnc3c2/C(=C/Nc2cc(cc(C(F)(F)F)c2)OCCCC1=O)C(=O)N3 [Compound 127] | > 10000 nM | – | > 10000 | > 10 µM | > 10 | –
CN1CCNc2ncnc3c2/C(=C/Nc2cc(cc(C(F)(F)F)c2)OCCCCC1=O)C(=O)N3 [Compound 128] | > 10000 nM | – | > 10000 | > 10 µM | > 10 | –
CN1CCCCCC(=O)N(C)CCNc2ncnc3c2/C(=C/Nc2ccc(N4CCOCC4)c(c2)C1)C(=O)N3 [Compound 131] | 452 nM | – | 6380 | > 10 µM | > 10 | –
CN1CCN(c2ccc3cc2CN(C)CCCC(=O)N(C)CCCNc2ncnc4c2/C(=C/N3)C(=O)N4)CC1 [Compound 140] | 525 nM | 1.23 | 51.3 | > 10 µM | 1.55 | IC50 (H1299): 2.63 µM; IC50 (PC-3): 6.17 µM; IC50 (U87MG): 501 nM
CN1CCN(c2ccc3cc2OCCCCCC(=O)N(C)CCNc2ncnc4c2/C(=C/N3)C(=O)N4)CC1 [Compound 141] | 692 nM | – | 447 | > 10 µM | 7.59 | –
COc1ccc2cc1OCC(=O)N[C@H](Cc1ccccc1)CN(C)CCNc1ncnc3c1/C(=C/N2)C(=O)N3 [Compound 191] | 1660 nM and 2090 nM and > 10000 nM | 2.45 | – | 3.39 µM and 3.55 µM and > 10 µM | – | IC50 (H1299): > 10 µM; pIC50 HCT-116 (HCT-116): 5.55 and 5.77; IC50 (HCT-116): 2.4 µM; pIC50 A2780 (A2780): 5.47
